The text below walks through data of ChEMBL document CHEMBL1142413.

The species entered for experiment [1] is Homo sapiens. The experiment in a line: Ratio of IC50 for human CB1R F200L mutant to IC50 for human wild type CB1R.
For experiment [2], the species on record is Homo sapiens. Kind of experiment: Ratio of IC50 for human CB1R W279A mutant to IC50 for human wild type CB1R.
The species named for experiment [3] is Homo sapiens. Kind of experiment: Ratio of IC50 for human CB1R S383A mutant to IC50 for human wild type CB1R.
The species entered for experiment [4] is Homo sapiens. The experiment in a line: Ratio of IC50 for human CB1R K192L mutant to IC50 for human wild type CB1R.

Take `Cc1c(C(=O)NN2CCCCC2)nn(-c2ccc(Cl)cc2Cl)c1-c1ccc(Cl)cc1`: the Fold change in experiment [1] was 3; in experiment [2], over 1000; in experiment [3], under 2; in experiment [4] it was 17.
